According to patent US9526782B2, “Pharmaceutical compositions comprising inhibitors of zinc-ZIP8-MTF1 as active ingredients for preventing or treating a joint disease” (GWANGJU INSTITUTE OF SCIENCE AND TECHNOLOGY, priority 2014, dated 2016):
Where two headings read alike, the source gives them in different places.

What was measured:
[1] = test system: matrix-degrading enzymes (MMP3, MMP9, MMP12, MMP13, and ADAMTS5); test: mRNA (qRT-PCR) and protein (Western blotting) levels of matrix-degrading enzymes in chondrocytes; type: cell-based, mouse; settings: for inhibitory effects of TPEN on the ZIP8-mediated expression of matrix-degrading enzymes, effect of pre-incubation of TPEN with the metal salt: Ad-Zip8 chondrocytes, TPEN 1 μM pre-incubated with 1 μM metal ion; for expression of matrix-degrading enzymes caused by the substance itself: chondrocytes, metal salts 100 μM (CdCl2 1 μM); for Ad-Mtf1-induced upregulation of matrix-degrading enzymes, effect of the test agent: chondrocytes infected with Ad-Mtf1; for upregulation of MMP3, MMP13, and ADAMTS5 by IL1β, effect of the test agent: chondrocytes treated with IL1β
Procedure: (§1) Adenoviruses expressing mouse Zip8 (Ad-Zip8) and Mtf1 (Ad-Mtf1) were purchased from Vector Biolabs. Mouse articular chondrocytes were cultured for 2 days, infected with empty virus (Ad-C), Ad-Zip8, or Ad-Mtf1 for 2 hours at the indicated multiplicity of infection (MOI), and cultured for 24 hours, followed by further analyses.
(§2) Total RNA was extracted from primary cultured chondrocytes using the TRI reagent (Molecular Research Center Inc.). For the isolation of RNA from knee joints, cartilage tissues were scraped with a blade to remove cartilage, and RNA was isolated using the TRI reagent and Purelink RNA mini kit (Ambion). The RNA was reverse transcribed, and the resulting cDNA was amplified by PCR.
(§3) Transcript levels were quantified by qRT-PCR. siRNAs targeting Zip8 and Mtf1 were obtained from Dharmacon and transfected using Lipofectamine 2000. Non-targeting (scrambled) siRNA was used as a negative control. Chondrocytes were transfected by incubating for 6 hours with siRNA and Lipofectamine 2000 (Invitrogen), and infected with adenoviruses as described above. Therapeutic antibodies for obstruction of ZIP8 function were purchased from Santa Cruz Biotechnology and MyBioSource Company, and treated in chondrocytes for 24 hours.
Total cell lysates were prepared in lysis buffer (150 mM NaCl, 1% NP-40, 50 mM Tris, 5 mM NaF) and used to detect cellular proteins (ZIP8, MTF1, and ERK). Secreted proteins (MMP3, MMP13, and ADAMTS5) were detected after trichloroacetic acid (TCA) precipitation from 900 μl of serum-free conditioned medium. All lysis buffers contained a cocktail of protease inhibitors and phosphatase inhibitors (Roche).

MTF1 = molecular target: T1, MTF1 (Mus musculus, UniProt Q07243); test: MTF1 activity reporter gene assay and immunostaining in chondrocytes; type: cell-based; settings: for inhibitory effects of TPEN on MTF1 transcriptional activity, effect of pre-incubation of TPEN with the metal salt: Ad-Zip8 chondrocytes, TPEN 1 μM pre-incubated with 1 μM metal ion; for MTF1 transcriptional activity, effect of the substance itself: chondrocytes, reporter gene assay
T1 construct: endogenous in cells; host or cells: primary mouse articular chondrocytes
Procedure: The MTF1 reporter gene assay kit was obtained from SABiosciences. Chondrocytes were transfected for 6 hours with a metal response element (MRE) reporter construct and a constitutive Renilla luciferase construct using Lipofectamine 2000 (Invitrogen). Transfected cells were infected with Ad-Mtf1 or Ad-Zip8 for 2 hours or treated with metal ions. Cells were harvested 24 hours after treatment, and firefly luciferase and Renilla luciferase activities were measured using a Dual Luciferase Assay System (Promega). […] MTF1 was detected by immunofluorescence microscopy. Images were acquired using a fluorescence microscope, and at least 200 cells were examined in multiple fields per condition to quantify the percentage of nuclear MTF1-positive cells.

ZIP8 [2] = molecular target: T2, ZIP8 (Mus musculus, UniProt Q91W10); test: Zn^2+ imaging and quantitation with FluoZin-3 AM in primary cultured articular chondrocytes; type: cell-based; settings: for cellular Zn^2+ level, effect of the substance itself: chondrocytes; for ZIP8-mediated increase in Zn^2+ influx: chondrocytes infected with Ad-Zip8, with the test agent; for IL1β-caused influx of Zn^2+ in chondrocytes, effect of the test agent: chondrocytes treated with IL1β
T2 construct: host or cells: primary mouse articular chondrocytes infected with Ad-Zip8
T2 sequence (Q91W10 20-462): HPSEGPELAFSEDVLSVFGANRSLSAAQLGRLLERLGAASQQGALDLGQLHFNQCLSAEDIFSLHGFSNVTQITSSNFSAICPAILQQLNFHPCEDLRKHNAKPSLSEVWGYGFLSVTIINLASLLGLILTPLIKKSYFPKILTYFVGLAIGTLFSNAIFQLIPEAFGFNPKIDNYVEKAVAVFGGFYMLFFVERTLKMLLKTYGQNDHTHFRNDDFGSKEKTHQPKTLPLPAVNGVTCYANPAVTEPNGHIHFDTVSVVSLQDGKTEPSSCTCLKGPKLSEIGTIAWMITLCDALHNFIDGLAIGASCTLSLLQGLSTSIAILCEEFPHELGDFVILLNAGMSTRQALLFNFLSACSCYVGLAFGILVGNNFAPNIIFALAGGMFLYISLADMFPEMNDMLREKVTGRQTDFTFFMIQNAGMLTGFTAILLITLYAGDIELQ
Procedure: Chondrocytes were maintained as a monolayer in Dulbecco's Modified Eagle's Medium (DMEM) supplemented with 10% fetal bovine serum (FBS) and antibiotics, and cells at culture day 2 were treated as indicated in each experiment.
as §1
Intracellular Zn^2+ was detected using the Zn^2+-selective fluorophore, FluoZin-3 AM (Invitrogen). […] Cells were then washed with Ca^2+- and Mg^2+-free phosphate-buffered saline (PBS) and incubated for an additional 30 minutes at 37° C. Intracellular Zn^2+ images were acquired with a fluorescence microscope, and population-wide fluorescence intensity was measured using a Spectramax Gemini microplate fluorescence reader (Molecular Devices) with excitation at 488 nm, cut-off at 515 nm, and emission at 530 nm.
as §3

ZIP8 [3] = test: Expression levels of metal ion transporters in chondrocytes treated with IL1β; type: cell-based; settings: primary cultures of mouse articular chondrocytes
Excerpt: FIG. 1a represents mRNA levels of metal ion transporters determined by qRT-PCR in articular chondrocytes treated with IL1β (n=10). Insert is Western blotting of ZIP8 in chondrocytes treated with IL1β.
as §2

mouse knee joints = test: Experimental OA induced by IA injection of adenovirus into mouse knee joints, histology and immunostaining; type: in vivo; settings: 0.1 mg/kg body weight
Excerpt: Male mice (C57BL/6, Col2a1-Zip8 TG, Zip8^+/−, Zip8^fl/fl; Zip8^fl/fl; Col2a1-Cre, Mtf1^+/−, Mtf1^fl/fl, Mtf1^fl/fl; Col2a1-Cre, Mt1^−/−; Mt2^−/−) were used for experimental OA studies. Chondrocyte-specific Zip8 TG (Col2a1-Zip8) mice were generated using the Col2a1 promoter and enhancer. Zip8^+/− mice were obtained from The European Mouse Mutant Archive. The Mtf1 mouse strain used for this research project was created from an ES cell clone generated by the Wellcome Trust Sanger Institute and developed into mice by the KOMP Repository and the Mouse Biology Program at the University of California, Davis. Zip8^+/− and Mtf1^+/− mice were backcrossed with Actb-Flp1 TG mice (The Jackson Laboratory) to generate Zip8fl/fl and Mtf1fl/fl mice, respectively. These mice were then backcrossed with Col2a1-Cre TG mice (The Jackson Laboratory) to generate chondrocyte-specific CKO mice (Zip8^fl/fl; Col2a1-Cre and Mtf1^fl/fl; Col2a1-Cre). Mt1^−/−, Mt2^−/− double-KO mice were obtained from The Jackson Laboratory. […]
Human OA cartilage was frozen, sectioned at 10-μm thickness, and fixed in paraformaldehyde. Sulfate proteoglycan was detected with alcian blue staining. Human ZIP8 was detected by immunostaining. […] Sections were deparaffinized in xylene, hydrated with graded ethanol, and stained with safranin-O. Cartilage destruction was scored by two blinded observers using the OARSI grading system (Glasson et al., 2010). Synovitis was determined by safranin-O and hematoxylin staining, and synovial inflammation (grade 0-3) was scored as described previously (Yang et al., 2010). Osteophyte development was identified by safranin-O staining, and osteophyte maturity was quantified as described previously (Oh et al., 2012). Subchondral bone sclerosis was determined by measuring the thickness of the subchondral bone plate (Zhen et al., 2013). Antibodies used for immunostaining of cartilage sections are as follows: ZIP8 and MTF1 in human cartilage tissue sections were detected by antibodies obtained from Proteintech (20459-1-AP) and Novus (NBP1-86380), respectively. […]

[4] = chondrocytes infected with Ad-Zip8

T1 sequence (Q07243 whole entry): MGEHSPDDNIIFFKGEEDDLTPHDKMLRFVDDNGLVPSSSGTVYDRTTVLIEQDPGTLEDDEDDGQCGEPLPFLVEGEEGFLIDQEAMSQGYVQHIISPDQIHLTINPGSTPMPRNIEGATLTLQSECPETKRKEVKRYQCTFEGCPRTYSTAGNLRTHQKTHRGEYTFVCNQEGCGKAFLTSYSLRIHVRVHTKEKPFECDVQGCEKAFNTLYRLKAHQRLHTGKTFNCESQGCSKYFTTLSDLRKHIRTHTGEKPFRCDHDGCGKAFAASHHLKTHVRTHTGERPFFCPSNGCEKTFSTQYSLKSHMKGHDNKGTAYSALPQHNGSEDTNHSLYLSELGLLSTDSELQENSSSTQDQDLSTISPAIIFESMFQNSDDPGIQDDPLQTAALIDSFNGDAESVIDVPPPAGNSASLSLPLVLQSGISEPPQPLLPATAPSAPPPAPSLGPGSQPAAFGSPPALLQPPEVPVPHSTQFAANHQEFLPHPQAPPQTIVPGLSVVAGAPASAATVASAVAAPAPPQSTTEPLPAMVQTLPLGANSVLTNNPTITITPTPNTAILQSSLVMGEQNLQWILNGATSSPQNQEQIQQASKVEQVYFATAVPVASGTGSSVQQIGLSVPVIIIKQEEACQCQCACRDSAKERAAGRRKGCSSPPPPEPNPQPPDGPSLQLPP

Molecule: [Cl][Mn][Cl] [MnCl2]
- inhibitory effects of TPEN on the ZIP8-mediated expression of matrix-degrading enzymes, effect of pre-incubation of TPEN with the metal salt [1]: no significant effects
- expression of matrix-degrading enzymes caused by the substance itself [1]: did not cause a marked expression
- inhibitory effects of TPEN on MTF1 transcriptional activity, effect of pre-incubation of TPEN with the metal salt (MTF1): not
- MTF1 transcriptional activity, effect of the substance itself (MTF1): no effect

Molecule: [Cl][Fe][Cl] [FeCl2]
- inhibitory effects of TPEN on the ZIP8-mediated expression of matrix-degrading enzymes, effect of pre-incubation of TPEN with the metal salt [1]: no significant effects
- expression of matrix-degrading enzymes caused by the substance itself [1]: moderate expression
- inhibitory effects of TPEN on MTF1 transcriptional activity, effect of pre-incubation of TPEN with the metal salt (MTF1): not
- MTF1 transcriptional activity, effect of the substance itself (MTF1): no effect

Molecule: IL1β: proinflammatory cytokine that promotes catabolism in arthritic cartilage
- cellular Zn^2+ level, effect of the substance itself (ZIP8 [2]): caused an influx of Zn^2+
- cellular Zn^2+ level, effect of the substance itself (ZIP8 [2]; listed as IL-1): increases
- ZIP8 expression levels (ZIP8 [3]): markedly increased

Molecule: mithramycin-A
- Ad-Zip8 (ZIP8)-induced upregulation of matrix-degrading enzymes, effect of the test agent [1]: significantly attenuated

Molecule: [Cl][Cd][Cl] [CdCl2]
- inhibitory effects of TPEN on the ZIP8-mediated expression of matrix-degrading enzymes, effect of pre-incubation of TPEN with the metal salt [1]: no significant effects
- MMP12 expression ([1]; chondrocytes treated with metal ion): modest induction
- expression of matrix-degrading enzymes caused by the substance itself [1]: did not cause a marked expression
- expression of matrix-degrading enzymes caused by the substance itself ([1]; listed as Cd^2+): no significant effect
- inhibitory effects of TPEN on MTF1 transcriptional activity, effect of pre-incubation of TPEN with the metal salt (MTF1): not
- MTF1 transcriptional activity, effect of the substance itself (MTF1): moderate activation

Molecule: c1ccc(CN(CCN(Cc2ccccn2)Cc2ccccn2)Cc2ccccn2)nc1 [TPEN, N,N,N′,N′-tetrakis (2-pyridylmethyl)ethylenediamine]
- ZIP8-mediated increase in Zn^2+ influx (ZIP8 [2]): abolished
- IL1β-caused influx of Zn^2+ in chondrocytes, effect of the test agent (ZIP8 [2]): blocked
- Ad-Mtf1-induced upregulation of matrix-degrading enzymes, effect of the test agent [1]: abolished
- Ad-Zip8 (ZIP8)-induced upregulation of matrix-degrading enzymes, effect of the test agent [1, 4]: blocked
- upregulation of MMP3, MMP13, and ADAMTS5 by IL1β, effect of the test agent [1]: abolished
- MTF1 transcriptional activity in Ad-Zip8-infected chondrocytes, effect of the test agent (MTF1; 800 MOI of Ad-Zip8, TPEN 1 μM): inhibitory effects
- Ad-Zip8-induced MMP expression, effect of co-injection (mouse knee joints): significantly blocked
- Ad-Zip8-induced cartilage destruction, effect of co-injection (mouse knee joints): significantly blocked
- Ad-Zip8-induced synovitis, effect of co-injection (mouse knee joints): significantly blocked

Molecule: c1ccc(-c2ccccn2)nc1 [2,2-bipyridyl]
- Ad-Zip8 (ZIP8)-induced upregulation of matrix-degrading enzymes, effect of the test agent [1, 4]: did not affect

Molecule: O=C(O)CN(CCN(CC(=O)O)CC(=O)O)CC(=O)O.[Ca] [CaEDTA, calcium-saturated EDTA]
- ZIP8-mediated increase in Zn^2+ influx (ZIP8 [2]): abolished
- IL1β-caused influx of Zn^2+ in chondrocytes, effect of the test agent (ZIP8 [2]): blocked
- Ad-Mtf1-induced upregulation of matrix-degrading enzymes, effect of the test agent [1]: abolished
- Ad-Zip8 (ZIP8)-induced upregulation of matrix-degrading enzymes, effect of the test agent [1, 4]: blocked
- upregulation of MMP3, MMP13, and ADAMTS5 by IL1β, effect of the test agent [1]: abolished
